{"source": "patent US20240122975A1", "about": "“IN VITRO METHODS AND COMPOSITIONS FOR ENHANCING THE ACTIVATION OF DENDRITIC CELLS AND T CELLS, AND FOR INDUCING A TH-1 IMMUNE RESPONSE” (Northwest Biotherapeutics, Inc., priority 2019, published 2024)", "test_system": "Immature cryopreserved C57BL/6 and BALB/c DCs", "test": "Luminex xMAP cytokine production by cryopreserved murine immature DCs primed with TLR agonist then oxPAPC or PGPC (Example 5)", "assay_type": "cell-based, C57BL/6 and BALB/c mice", "details": "TLR agonist stimulated murine DCs; increasing concentrations of lipid (1-90 μg/ml, 48 hours)", "protocol": "Immature cryopreserved C57BL/6 and BALB/c DCs (Cellero) were rapidly thawed in a water bath at 37° C. and the cells were resuspended in 10 times the volume of RPMI 1640/10% FBS/penicillin/streptomycin/L-glutamine/2-ME. Cells were washed twice using complete media. Thawed cells were plated in triplicate at 2×10^5 cells/well in a 96-well flat bottom TC plate. DCs were primed with 1 μg/ml of LPS (Sigma Aldrich), 1:400 dilution of hBCG (Organon Teknika/Cognate), 1 μg/ml of R848 (Sigma Aldrich), 1 μg/ml Pam2 (Invivogen), 1 μg/ml Pam3 (Invivogen), and 25 μg/ml of Poly I:C HMW (“high molecular weight”; Invivogen) for 3 hrs. Titrated concentrations of oxPAPC (Invivogen) or PGPC (Cayman)—at 1 μg/ml, 3 μg/ml, 10 μg/ml, 30 μg/ml, and 90 μg/ml—were added to appropriate samples and cultured for an additional 48 hours. Cytokine production in 100 μl of culture medium was assessed by a mouse cytokine and chemokine panel, across 26 protein targets (IFNγ; IL12 p70; IL13; IL1β; IL2; IL4; IL5; IL6; TNFα; GM-CSF; IL18; IL10; IL17A; IL22; IL23; IL27; IL9; GROα; IP10; MCP1; MCP3; MIP1α; MIP1β; MIP2; RANTES; and Eotaxin), using Luminex xMAP® multiplex technology using the manufacturer's. The xMAP system is an immunoassay system that can simultaneously detect many targets in a single sample.", "data": [{"molecule": "CCCCCCCCCCCCCCCC(=O)OCC(COP(=O)([O-])OCC[N+](C)(C)C)OC(=O)CCCC(=O)O", "note": "(stereo not shown) [PGPC, 1-palmitoyl-2-glutaryl phosphatidylcholine]", "values": [{"measurement": "production of IL-1β", "value": "upregulated production"}]}]}
